Assay results from patent US20230192799A1, “CNP Variants and Conjugates Thereof” (BIOMARIN PHARMACEUTICAL INC., priority 2019, published 2023).
Numbered stars: 1 amine (or outer) side, 2 acyl side, 3 side chain; on linkers, the order of the positions; unused ones are H or OH. Bridge positions count the residues as written; N and C are the ends. Side chains are listed from the residue outwards. Peptide text beside a SMILES is read from it. * marks the point of attachment. ξ: configuration not given here. C18 diacid = O=C(O)CCCCCCCCCCCCCCCCC(=O)*; ξγGlu = O=C(O)C(CCC(=O)[*:2])N[*:1]; AEEA = NCCOCCOCC(=O)O

What was measured:
[1] = test system: NPR2+/− rat chondrosarcoma cell model (heterozygous NPR2 knockout cells); experiment: cGMP stimulation assay in NPR2 mutant RCS cells; type: cell-based
Description: To determine the effects of CNP on subjects with short stature resulting from NPR2 mutations, cellular models of NPR2 mutations were developed. […] Rat chondrosarcoma (RCS) cells having either a knockout of, or heterozygous loss of function mutations in, the NPR2 gene were made by RNP transfection into RCS cells using 125 ng NPR2 variants or wild-type NPR2 plasmid DNA transfected into RCS or HEK293 cells. Single cell clones were seeded and genotyped by Sanger sequencing.
The NPR2 clones were created by creating insertions and deletions in the first exon of NPR2 in RCS cells. […] NPR2 mutant cells were tested for activity in response to CNP administration by a cGMP stimulation assay using a Catch Point Cyclic-GMP Fluorescent Assay after treatment with 6 nM of Pro-Gly CNP37. RCS (rat chondrosarcoma) cells were seeded at 40,000 cells/well in RCS culture media: DMEM+10% FBS+1× Pen Strep.

[2] = test system: mouse model of Cardiofaciocutaneous syndrome using a Braf mutation (p.Q241R); conditions: in vivo; cited from earlier work
[3] = test system: mice deficient in Nf1 in type II collagen producing cells; conditions: daily injections; cited from earlier work
[4] = Stability of CNP variants by RP-HPLC, 10 days in PBS; type: physicochemical; conditions: for T0, % (% variant detected at T0): T0 (0 days); for T10, % (% variant detected at T10): T10 (10 days) in PBS, pH 7.4, at 37° C.
[5] = Stability of CNP variants or conjugates in human plasma (LC-MS/MS); type: in vitro ADME
Description: Stability of different CNP variants or CNP conjugates were tested for stability in human plasma over a 24 hour period. Briefly, a C18 fatty acid was fused to gamma glutamic acid using 2 OEG spacers (see e.g., Lau et al., J. Med. Chem 58:7370-7380, 2015). For the chromatography, Waters UPLC H-Class connected with BEH C18 1.7 um, 2.1×150 mm; Mobile Phase A: 1% DMSO 0.1% Formic Acid in Water; Mobile Phase B: 1% DMSO 0.1% Formic Acid in CAN. Mass Spectrometry was carried out using an AB Sciex QTRAP.
each CNP variant was prepared at 200 nM in Human Plasma Li Heparin and samples Incubated at 37° C. 5% CO2. The reaction was quenched at 0, 1, 2, 4, 8, 24 hours with 0.5M Sodium Citrate pH 4. Plasma proteins were precipitated with 0.2% Formic Acid in MeOH and samples prepared using WCX 96-well uElution plate and analyzed by LC-MS/MS 6500.
Stability of different conjugates was also analyzed at varying conditions. Briefly, the same protocol as above was used at 37° C. (control), 37° C.+0.5M NaCl, 37° C.+protease inhibitors or 4° C.

[6] = test system: cGMP production in NIH3T3 cells and HEK293 cells; experiment: cGMP stimulation assay (CatchPoint Cyclic-GMP Fluorescent Assay); type: cell-based; conditions: peptide at T0, 7-point dose curve 100 nM to 0.0064 nM

Compound	T0, % (% variant detected at T0) [4] [%]	T10, % (% variant detected at T10) [4] [%]	also measured
C-type natriuretic peptide [CNP]	–	–	rescue of NPR2 signaling ([1]; cell model of NPR2 haploinsufficiency, exogenous CNP): dose-dependent rescue; body length [2]: increases in body length; ERK phosphorylation [3]: decreased ERK phosphorylation; short stature [3]: corrected the short stature
PGQEHPNARRYRGANRRGLSRGCFGLKLDRIGSMSGLGC [CNP-6]	90	58	–
PGQEHPNARKYKGANKKGLSKGCFGLKLDRIGSMSGLGC [CNP-5]	83	47	–
CC[C@H](C)[C@@H]1NC(=O)[C@H](CCCNC(=N)N)NC(=O)[C@H](CC(=O)O)NC(=O)[C@H](CC(C)C)NC(=O)[C@H](CCCCN)NC(=O)[C@H](CC(C)C)NC(=O)CNC(=O)[C@H](Cc2ccccc2)NC(=O)[C@@H](NC(=O)CNC(=O)[C@H](CCCCN)NC(=O)[C@H](CO)NC(=O)[C@H](CC(C)C)NC(=O)CNC(=O)[C@H](CCCCN)NC(=O)[C@H](CCCCN)NC(=O)[C@H](CC(N)=O)NC(=O)[C@H](C)NC(=O)CNC(=O)[C@H](CCCCN)NC(=O)[C@H](Cc2ccc(O)cc2)NC(=O)[C@H](CCCCN)NC(=O)[C@H](CCCNC(=N)N)NC(=O)[C@H](C)NC(=O)[C@H](CC(N)=O)NC(=O)[C@@H]2CCCN2C(=O)[C@H](Cc2c[nH]cn2)NC(=O)[C@H](CCC(=O)O)NC(=O)[C@H](CCC(N)=O)NC(=O)CNC(=O)[C@@H]2CCCN2)CSSC[C@@H](C(=O)O)NC(=O)CNC(=O)[C@H](CC(C)C)NC(=O)CNC(=O)[C@H](CO)NC(=O)[C@H](CCSC)NC(=O)[C@H](CO)NC(=O)CNC1=O [Pro-Gly CNP37]	76.7	39.5	cGMP readout ([1]; NPR2+/− rat chondrosarcoma cells, 6 nM of peptide (FIG. 4)): rescues cGMP readout; stability in human plasma at varying conditions ([5]; 37° C. (control), 37° C.+0.5M NaCl, 37° C.+protease inhibitors or 4° C. (FIG. 3)): greater stability compared to other variants; proteolysis in human plasma ([5]; human plasma, varying conditions (FIG. 3)): prone to proteolysis; EC50 [6]: 1.7 nM
PGQEHPNARRYRGANRRGLSRGCFGLKLDRIGSMSGLGC [CNP-7]	77	53	–
PGQEHPQARRYRGAQRRGLSRGCFGLKLDRIGSMSGLGC [CNP-8]	91	88	–
CC[C@H](C)[C@@H]1NC(=O)[C@H](CCCNC(=N)N)NC(=O)[C@H](CC(=O)O)NC(=O)[C@H](CC(C)C)NC(=O)[C@H](CCCCNC(=O)COCCOCCNC(=O)COCCOCCNC(=O)CCC(NC(=O)CCCCCCCCCCCCCCCCC(=O)O)C(=O)O)NC(=O)[C@H](CC(C)C)NC(=O)CNC(=O)[C@H](Cc2ccccc2)NC(=O)[C@@H](NC(=O)CNC(=O)[C@H](CCCNC(=N)N)NC(=O)[C@H](CO)NC(=O)[C@H](CC(C)C)NC(=O)CNC(=O)[C@H](CCCNC(=N)N)NC(=O)[C@H](CCCNC(=N)N)NC(=O)[C@H](CCC(N)=O)NC(=O)[C@H](C)NC(=O)CNC(=O)[C@H](CCCNC(=N)N)NC(=O)[C@H](Cc2ccc(O)cc2)NC(=O)[C@H](CCCNC(=N)N)NC(=O)[C@H](CCCNC(=N)N)NC(=O)[C@H](C)NC(=O)[C@H](CCC(N)=O)NC(=O)[C@@H]2CCCN2C(=O)[C@H](Cc2c[nH]cn2)NC(=O)[C@H](CCC(=O)O)NC(=O)[C@H](CCC(N)=O)NC(=O)CNC(=O)[C@@H]2CCCN2C(C)=O)CSSC[C@@H](C(=O)O)NC(=O)CNC(=O)[C@H](CC(C)C)NC(=O)CNC(=O)[C@H](CO)NC(=O)[C@H](CCSC)NC(=O)[C@H](CO)NC(=O)CNC1=O (stereo partly drawn) [lipidated conjugate] (Ac-PGQEHPQARRYRGAQRRGLSRGCFGLK([AEEA-AEEA-ξγGlu-C18 diacid])LDRIGSMSGLGC-OH; disulfide 23-39)	–	–	stability in plasma ([5]; human plasma, 200 nM, 37° C., over 24 hrs (FIG. 2)): improved stability in plasma compared to PEGylated or non-conjugated peptides
PGQEHPQARRYRGAQRRGLSRGCFGLKLDRIGSMSGLGC [CNP-9]	92	77	–
